# From publication PMC10786919, “Design-rules for stapled peptides with in vivo activity and their application to Mdm2/X antagonists” (Nature Communications, 2024)
# Read-outs that look alike come from different tables or passages of the source. Positions of bridges follow the written chain, without caps; N, C: chain ends. Non-standard residues stand in square brackets, D forms with d. Residues, ends and D or L forms follow the SMILES beside them. Trp(6-Cl) = N[C@@H](Cc1c[nH]c2cc(Cl)ccc12)C(=O)O; Lys(N3) = [N-]=[N+]=NCCCC[C@H](N)C(=O)O; 2Nal = N[C@@H](Cc1ccc2ccccc2c1)C(=O)O; R8 = C=CCCCCCC[C@@](C)(N)C(=O)O; Cba = N[C@@H](CC1CCC1)C(=O)O; S5 = C=CCCC[C@](C)(N)C(=O)O; Nle = CCCC[C@H](N)C(=O)O; Dap = NC[C@H](N)C(=O)O; Aib = CC(C)(N)C(=O)O; Ahx = NCCCCCC(=O)O; βAla = NCCC(=O)O
# Legend:
# HCT116 cells = experiment: Lactate dehydrogenase (LDH) release assay; type: cell-based
# Experimental: (§1) HCT116 cells were stably transfected with a p53 responsive β-lactamase reporter and expanded in McCoy’s 5 A Medium with 10% fetal bovine serum (FBS), Blasticidin, and Penicillin/Streptomycin and then transferred to 1.5 ml freezing vials and stored under liquid nitrogen in growth media containing 5% DMSO. […] The cells were then seeded into a 384-well plate at a density of 8000 cells per well. […] The final working concentration of DMSO was 0.5%. Lactate dehydrogenase release was detected using the CytoTox-ONE Homogenous Membrane Integrity Assay Kit (Promega), as per the manufacturer’s instructions. Measurements were carried out using the Tecan plate reader. […] Measurements were taken a minimum of three times (biological replicates) and values are reported as geometric means of the replicates.
# [1] = Lactate dehydrogenase (LDH) release assay; type: cell-based
# Experimental: as §1
# [2] = 0% FBS 4Hr, read-out: LDH: Cytotoxicity assay EC50
# [3] = 10% FBS 16Hr, read-out: LDH: Cytotoxicity assay EC50
SMILES,EC50 ([1]; LDH: Cytotoxicity assay: EC50),LDH: Cytotoxicity assay % Effect (HCT116 cells),EC50 ([1]; LDH: Cytotoxicity assay EC50),other results
CC(=O)N[C@@H](CCCNC(=N)N)C(=O)NCCCCCC(=O)N[C@@H](CCCCN=[N+]=[N-])C(=O)N[C@@H](CC(C)C)C(=O)N[C@H](C(=O)N[C@@H](Cc1ccccc1)C(=O)N[C@]1(C)CCCCCCC=CCCC[C@@](C)(C(=O)N[C@@H](CO)C(=O)N[C@@H](C)C(=O)N[C@@H](C)C(N)=O)NC(=O)[C@H](CC2CCC2)NC(=O)[C@H](CCC(N)=O)NC(=O)[C@H](C)NC(=O)[C@H](Cc2c[nH]c3ccccc23)NC(=O)[C@H](Cc2ccc(O)cc2)NC(=O)[C@H](CCC(=O)O)NC1=O)[C@@H](C)O [MP-005],> 50 µM,,,LDH: Cytotoxicity assay: % Effect (HCT116 cells): 39.54%
CC(=O)N[C@H](C(=O)N[C@@H](CO)C(=O)N[C@@H](Cc1ccccc1)C(=O)N[C@]1(C)CCCCCCC=CCCC[C@@](C)(C(=O)N[C@@H](CCC(=O)O)C(N)=O)NC(=O)[C@H](CC2CCC2)NC(=O)[C@H](CC(C)C)NC(=O)[C@H](C)NC(=O)[C@H](Cc2c[nH]c3cc(Cl)ccc23)NC(=O)[C@H](Cc2ccc(O)cc2)NC(=O)[C@H](CCC(=O)O)NC1=O)[C@@H](C)O [MP-043] (Ac-TSF[R8]EY[Trp(6-Cl)]AL[Cba][S5]E-NH2; staple 4-11),,3.493%,> 50 µM,
CC(=O)N[C@@H](CCCCN)C(=O)N[C@@H](CCCCN)C(=O)N[C@H](C(=O)N[C@@H](CO)C(=O)N[C@@H](Cc1ccccc1)C(=O)N[C@]1(C)CCCCCCC=CCCC[C@@](C)(C(N)=O)NC(=O)[C@H](CC2CCC2)NC(=O)[C@H](CC(C)C)NC(=O)[C@H](C)NC(=O)[C@H](Cc2c[nH]c3ccccc23)NC(=O)[C@H](Cc2ccc(O)cc2)NC(=O)[C@H](CCC(=O)O)NC1=O)[C@@H](C)O [MP-087] (Ac-KKTSF[R8]EYWAL[Cba][S5]-NH2; staple 6-13),,23.77%,35.2 µM,
CC(=O)N[C@H](C(=O)N[C@@H](CO)C(=O)N[C@@H](Cc1ccccc1)C(=O)N[C@]1(C)CCCCCCC=CCCC[C@@](C)(C(=O)N[C@@H](CCC(=O)O)C(N)=O)NC(=O)[C@H](CC2CCC2)NC(=O)[C@H](CC(C)C)NC(=O)[C@H](C)NC(=O)[C@H](Cc2c[nH]c3ccccc23)NC(=O)[C@H](Cc2ccc(O)cc2)NC(=O)[C@H](CCC(=O)O)NC1=O)[C@@H](C)O [MP-140] (Ac-TSF[R8]EYWAL[Cba][S5]E-NH2; staple 4-11),,11.41%,> 50 µM,
CCCC[C@@H]1NC(=O)[C@H](CC(C)C)NC(=O)[C@H](C)NC(=O)[C@H](Cc2c[nH]c3ccccc23)NC(=O)[C@H](Cc2ccc(O)cc2)NC(=O)[C@H](CCC(=O)O)NC(=O)[C@](C)(NC(=O)[C@H](Cc2ccc3ccccc3c2)NC(=O)[C@H](CO)NC(=O)[C@@H](NC(C)=O)[C@@H](C)O)CCCCCCC=CCCC[C@@](C)(C(N)=O)NC1=O [MP-147] (Ac-TS[2Nal][R8]EYWAL[Nle][S5]-NH2; staple 4-11),,20.59%,> 50 µM,
CCCC[C@@H]1NC(=O)[C@H](CC(C)C)NC(=O)[C@H](C)NC(=O)[C@H](Cc2c[nH]c3ccccc23)NC(=O)[C@H](Cc2ccc(O)cc2)NC(=O)[C@H](CCC(=O)O)NC(=O)[C@](C)(NC(=O)[C@H](Cc2ccccc2)NC(=O)[C@H](CO)NC(=O)[C@@H](NC(C)=O)[C@@H](C)O)CCCCCCC=CCCC[C@@](C)(C(N)=O)NC1=O [MP-151],,9.894%,> 50 µM,
CCCC[C@H](NC(=O)[C@H](CC(C)C)NC(=O)[C@H](C)NC(=O)[C@H](Cc1c[nH]c2ccccc12)NC(=O)[C@H](Cc1ccc(O)cc1)NC(=O)[C@H](CCC(=O)O)NC(=O)C(C)(C)NC(=O)[C@H](Cc1ccccc1)NC(=O)[C@H](CO)NC(=O)[C@@H](NC(C)=O)[C@@H](C)O)C(=O)NC(C)(C)C(N)=O [MP-156],,-1.482%,> 50 µM,
CC(=O)N[C@@H](CCCCN)C(=O)N[C@@H](CCCCN)C(=O)N[C@H](C(=O)N[C@@H](CO)C(=O)N[C@@H](Cc1ccccc1)C(=O)N[C@]1(C)CCCCCCC=CCCC[C@@](C)(C(=O)N[C@@H](CCC(=O)O)C(N)=O)NC(=O)[C@H](CC2CCC2)NC(=O)[C@H](CC(C)C)NC(=O)[C@H](C)NC(=O)[C@H](Cc2c[nH]c3ccccc23)NC(=O)[C@H](Cc2ccc(O)cc2)NC(=O)[C@H](CCC(=O)O)NC1=O)[C@@H](C)O [MP-157] (Ac-KKTSF[R8]EYWAL[Cba][S5]E-NH2; staple 6-13),,5.957%,> 50 µM,
CC(=O)N[C@@H](CCCCN)C(=O)N[C@@H](CCCCN)C(=O)N[C@H](C(=O)N[C@@H](CO)C(=O)N[C@@H](Cc1ccc2ccccc2c1)C(=O)N[C@]1(C)CCCCCCC=CCCC[C@@](C)(C(=O)N[C@@H](CCC(=O)O)C(N)=O)NC(=O)[C@H](CC2CCC2)NC(=O)[C@H](CC(C)C)NC(=O)[C@H](C)NC(=O)[C@H](Cc2c[nH]c3ccccc23)NC(=O)[C@H](Cc2ccc(O)cc2)NC(=O)[C@H](CCC(=O)O)NC1=O)[C@@H](C)O [MP-158] (Ac-KKTS[2Nal][R8]EYWAL[Cba][S5]E-NH2; staple 6-13),,9.197%,> 50 µM,
CC(=O)N[C@@H](CCCCN=[N+]=[N-])C(=O)NCCC(=O)N[C@@H](CC(C)C)C(=O)N[C@H](C(=O)N[C@@H](Cc1ccccc1)C(=O)N[C@]1(C)CCCCCCC=CCCC[C@@](C)(C(=O)N[C@@H](C)C(=O)NC(C)(C)C(=O)NC(C)(C)C(=O)NC(C)(C)C(=O)NC(C)(C)C(=O)NC(C)(C)C(N)=O)NC(=O)[C@H](CC2CCC2)NC(=O)[C@H](CCC(N)=O)NC(=O)[C@H](C)NC(=O)[C@H](Cc2c[nH]c3ccccc23)NC(=O)[C@H](Cc2ccc(O)cc2)NC(=O)[C@H](CCC(=O)O)NC1=O)[C@@H](C)O [MP-413] (Ac-[Lys(N3)][βAla]LTF[R8]EYWAQ[Cba][S5]A[Aib][Aib][Aib][Aib][Aib]-NH2; staple 6-13),,,,"LDH: Cytotoxicity assay % Effect (HCT116 cells; 0% FBS 4Hr): 8.4%; LDH: Cytotoxicity assay % Effect (HCT116 cells; 10% FBS 16Hr): 10.36%; EC50 [1, 2]: > 50.7 µM; EC50 [1, 3]: > 50.7 µM"
"CC(=O)N[C@@H](CCCCN=[N+]=[N-])C(=O)NCCC(=O)N[C@@H](CC(C)C)C(=O)N[C@H](C(=O)N[C@@H](Cc1ccccc1)C(=O)N[C@]1(C)CCCCC#CC#CCCC[C@@](C)(C(=O)N[C@@H](C)C(=O)N[C@@H](C)C(=O)NC(C)(CCC(=O)O)C(=O)N[C@@H](C)C(=O)N[C@@H](C)C(=O)N[C@H](C)C(N)=O)NC(=O)[C@H](CC2CCC2)NC(=O)[C@H](CCC(N)=O)NC(=O)[C@H](C)NC(=O)[C@H](Cc2c[nH]c3ccccc23)NC(=O)[C@H](Cc2ccc(O)cc2)NC(=O)[C@H](CCC(=O)O)NC1=O)[C@@H](C)O (stereo partly drawn) [MP-467, Ac-K(N3)-(betaAla)-LTF(X)EYWAQ(Cba)(X)AA(a-methly-Glu)AA(DAla)-NH2]",,,,"EC50 [1, 2]: > 50.7 µM; EC50 [1, 3]: > 50.7 µM"
CC(=O)N[C@@H](CCCCN=[N+]=[N-])C(=O)NCCC(=O)N[C@@H](CC(C)C)C(=O)N[C@H](C(=O)N[C@@H](Cc1ccccc1)C(=O)N[C@]1(C)CCCCCCC=CCCC[C@@](C)(C(=O)N[C@@H](CO)C(=O)N[C@@H](C)C(=O)N[C@@H](C)C(N)=O)NC(=O)[C@H](CC2CCC2)NC(=O)[C@H](CCC(N)=O)NC(=O)[C@H](C)N(C)C(=O)[C@H](Cc2c[nH]c3ccccc23)NC(=O)[C@H](Cc2ccc(O)cc2)NC(=O)[C@H](CCC(=O)O)NC1=O)[C@@H](C)O [MP-498],> 50 µM,,,LDH: Cytotoxicity assay: % Effect (HCT116 cells): 7.026%
CC(C)C[C@H](NC(=O)CCNC(=O)[C@@H](N)CCCCN=[N+]=[N-])C(=O)N[C@H](C(=O)N[C@@H](Cc1ccccc1)C(=O)N[C@]1(C)CCCCCCC=CCCC[C@@](C)(C(=O)N[C@@H](CO)C(=O)N[C@@H](C)C(=O)N[C@@H](C)C(N)=O)NC(=O)[C@H](CC2CCC2)NC(=O)[C@H](CCC(N)=O)NC(=O)[C@H](C)NC(=O)[C@H](Cc2c[nH]c3ccccc23)NC(=O)[C@H](Cc2ccc(O)cc2)NC(=O)[C@H](CCC(=O)O)NC1=O)[C@@H](C)O [MP-618],> 50.7 µM,,,
CC(=O)N[C@@H](CCCCN=[N+]=[N-])C(=O)NCCC(=O)N[C@@H](CC(C)C)C(=O)N[C@@H](CCC(=O)O)C(=O)N[C@@H](Cc1ccccc1)C(=O)N[C@@]1(C)CCCCCCC=CCCC[C@@](C)(C(=O)N[C@@H](CO)C(=O)N[C@@H](C)C(=O)N[C@@H](C)C(N)=O)NC(=O)[C@H](CC2CCC2)NC(=O)[C@H](CCC(N)=O)NC(=O)[C@H](C)NC(=O)[C@H](Cc2c[nH]c3ccccc23)NC(=O)[C@H](Cc2ccc(O)cc2)NC(=O)[C@H](CCC(=O)O)NC1=O [MP-630],> 50.7 µM,,,
CC(=O)N[C@@H](CN)C(=O)N[C@@H](CN)C(=O)NCCCCCC(=O)N[C@H](C(=O)N[C@@H](CO)C(=O)N[C@@H](Cc1ccccc1)C(=O)N[C@]1(C)CCCCCCC=CCCC[C@@](C)(C(=O)N[C@@H](CCC(=O)O)C(=O)N[C@@H](CC(N)=O)C(=O)N[C@@H](Cc2ccccc2)C(N)=O)NC(=O)[C@H](CC(C)C)NC(=O)[C@H](CC(C)C)NC(=O)[C@H](C)NC(=O)[C@H](Cc2c[nH]c3ccccc23)NC(=O)[C@H](Cc2ccc(O)cc2)NC(=O)[C@H](CCC(=O)O)NC1=O)[C@@H](C)O [MP-663] (Ac-[Dap][Dap][Ahx]TSF[R8]EYWALL[S5]ENF-NH2; staple 7-14),,,> 50 µM,
CC(=O)N[C@H](CC(C)C)C(=O)N[C@H](C(=O)N[C@@H](Cc1ccccc1)C(=O)N[C@]1(C)CCCCCCC=CCCC[C@@](C)(C(=O)N[C@@H](CO)C(=O)N[C@@H](C)C(=O)N[C@H](C)C(N)=O)NC(=O)[C@H](CC2CCC2)NC(=O)[C@H](CC(C)C)NC(=O)[C@H](CCC(N)=O)NC(=O)[C@H](Cc2c[nH]c3ccccc23)NC(=O)[C@H](Cc2ccc(O)cc2)NC(=O)[C@H](CCC(=O)O)NC1=O)[C@@H](C)O [MP-7202],> 50.6 µM,,,
